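In this assay, cells in 96-well plates receive the compound at five concentrations for 48 hours. Endpoints are linearly interpolated between the surrounding concentrations. GI50 = concentration required for 50% inhibition of growth.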 The source made the active and inactive calls. Rule as the data show it: active = GI50 up to about 1.1 µM and inactive = higher.
What was measured:
Assay in all cases: growth of human tumour cells (NCI), 48 h
SF-539 = test system: SF-539
U-251 = test system: U-251
NCI-H23 = test system: NCI-H23
HL-60 = test system: HL-60
MOLT-4 = test system: MOLT-4
MDA-MB-231 = test system: MDA-MB-231
CAKI-1 = test system: CAKI-1
EKVX = test system: EKVX
A549 = test system: A549
HCT-116 = test system: HCT-116
T47D = test system: T47D
SF-268 = test system: SF-268
NCI-H226 = test system: NCI-H226
HOP-62 = test system: HOP-62
SK-MEL-28 = test system: SK-MEL-28
UACC-257 = test system: UACC-257
786-0 = test system: 786-0
SK-MEL-2 = test system: SK-MEL-2
OVCAR-8 = test system: OVCAR-8
MDA-N = test system: MDA-N
Malme-3M = test system: Malme-3M
SF-295 = test system: SF-295
SW-620 = test system: SW-620
SNB-75 = test system: SNB-75
ACHN = test system: ACHN
RPMI-8226 = test system: RPMI-8226
UO-31 = test system: UO-31
HCT-15 = test system: HCT-15
COLO 205 = test system: COLO 205
CCRF-CEM = test system: CCRF-CEM
LOX IMVI = test system: LOX IMVI
RXF 393 = test system: RXF 393
MDA-MB-435 = test system: MDA-MB-435
M14 = test system: M14
TK-10 = test system: TK-10
NCI/ADR-RES = test system: NCI/ADR-RES
HT-29 = test system: HT-29
OVCAR-4 = test system: OVCAR-4
OVCAR-3 = test system: OVCAR-3
DU-145 = test system: DU-145
SNB-19 = test system: SNB-19
IGROV-1 = test system: IGROV-1
SK-OV-3 = test system: SK-OV-3
MCF7 = test system: MCF7
Hs-578T = test system: Hs-578T
PC-3 = test system: PC-3
OVCAR-5 = test system: OVCAR-5
K562 = test system: K562
HCC 2998 = test system: HCC 2998
SR = test system: SR
KM12 = test system: KM12
A498 = test system: A498
NCI-H522 = test system: NCI-H522
BT-549 = test system: BT-549
HOP-92 = test system: HOP-92
UACC-62 = test system: UACC-62
SN12C = test system: SN12C
NCI-H460 = test system: NCI-H460
SK-MEL-5 = test system: SK-MEL-5

Question: Which results are given for O=C1/C(=C\c2ccc(-c3ccc(Cl)cc3Cl)o2)SC2NC(COc3ccc(Cl)cc3)=NN12 (stereo not drawn)?
Answer: GI50 (SF-539): 49000 nM (inactive); GI50 (U-251): 21400 nM (inactive); GI50 (NCI-H23): 53200 nM (inactive); GI50 (HL-60): 22500 nM (inactive); GI50 (MOLT-4): 31800 nM (inactive); GI50 (MDA-MB-231): 44000 nM (inactive); GI50 (CAKI-1): 51100 nM (inactive); GI50 (EKVX): 32400 nM (inactive); GI50 (A549): 69700 nM (inactive); GI50 (HCT-116): 48400 nM (inactive); GI50 (T47D): 27200 nM (inactive); GI50 (SF-268): 36000 nM (inactive); GI50 (NCI-H226): 20200 nM (inactive); GI50 (HOP-62): 80400 nM (inactive); GI50 (SK-MEL-28): > 100000 nM (inactive); GI50 (UACC-257): 21100 nM (inactive); GI50 (786-0): 51200 nM (inactive); GI50 (SK-MEL-2): 50500 nM (inactive); GI50 (OVCAR-8): 38300 nM (inactive); GI50 (MDA-N): 44200 nM (inactive); GI50 (Malme-3M): 42200 nM (inactive); GI50 (SF-295): 45300 nM (inactive); GI50 (SW-620): 60700 nM (inactive); GI50 (SNB-75): > 100000 nM (inactive); GI50 (ACHN): 53700 nM (inactive); GI50 (RPMI-8226): 38400 nM (inactive); GI50 (UO-31): > 100000 nM (inactive); GI50 (HCT-15): 34900 nM; GI50 (COLO 205): 41500 nM (inactive); GI50 (CCRF-CEM): 16000 nM (inactive); GI50 (LOX IMVI): 52100 nM (inactive); GI50 (RXF 393): 27500 nM (inactive); GI50 (MDA-MB-435): 38700 nM (inactive); GI50 (M14): > 100000 nM (inactive); GI50 (TK-10): 2960 nM (inactive); GI50 (NCI/ADR-RES): 37500 nM (inactive); GI50 (HT-29): 79400 nM (inactive); GI50 (OVCAR-4): 45300 nM (inactive); GI50 (OVCAR-3): 36000 nM (inactive); GI50 (DU-145): 65600 nM (inactive); GI50 (SNB-19): 53700 nM (inactive); GI50 (IGROV-1): 29900 nM (inactive); GI50 (SK-OV-3): 88300 nM (inactive); GI50 (MCF7): 33400 nM (inactive); GI50 (Hs-578T): 25500 nM (inactive); GI50 (PC-3): 64700 nM (inactive); GI50 (OVCAR-5): > 100000 nM (inactive); GI50 (K562): 48900 nM (inactive); GI50 (HCC 2998): 41100 nM (inactive); GI50 (SR): 33300 nM (inactive); GI50 (KM12): 55500 nM (inactive); GI50 (A498): 2190 nM (inactive); GI50 (NCI-H522): 55000 nM (inactive); GI50 (BT-549): 47000 nM (inactive); GI50 (HOP-92): 26500 nM (inactive); GI50 (UACC-62): 34000 nM (inactive); GI50 (SN12C): 72100 nM (inactive); GI50 (NCI-H460): 38500 nM (inactive); GI50 (SK-MEL-5): 36700 nM (inactive)

Question: With COc1c(C)c(OC)c2c(c1O)[C@@H]1[C@@H]3Cc4c(OC)c(C)c(OC)c(O)c4[C@H](CNC(=O)c4cnc5ccccc5n4)N3[C@@H](C#N)[C@H](C2)N1C as the compound, how does the GI50 (SF-539) read?
Answer: The GI50 was 0.873 nM (active).

Question: And the GI50 (U-251)?
Answer: Its GI50 is 1.35 nM (active).

Question: And the GI50 (NCI-H23)?
Answer: The GI50 was 2.77 nM (active).

Question: What about the GI50 (HL-60) of the same compound?
Answer: Its GI50 is 1.53 nM (active).

Question: What about the GI50 (MOLT-4) of the same compound?
Answer: The GI50 was 0.689 nM (active).

Question: What about the GI50 (MDA-MB-231) of the same compound?
Answer: Its GI50 is 3.26 nM (active).

Question: What about the GI50 (CAKI-1) of the same compound?
Answer: The GI50 was 5.36 nM (active).

Question: And the GI50 (EKVX)?
Answer: The GI50 was 1.49 nM (active).

Question: What about the GI50 (A549) of the same compound?
Answer: Its GI50 is 29.2 nM (active).

Question: And the GI50 (HCT-116)?
Answer: The GI50 was 2.22 nM (active).

Question: And the GI50 (T47D)?
Answer: The GI50 was 0.522 nM (active).

Question: And the GI50 (SF-268)?
Answer: The GI50 was 3.54 nM (active).

Question: And the GI50 (NCI-H226)?
Answer: The GI50 was 2.46 nM (active).

Question: And the GI50 (HOP-62)?
Answer: Its GI50 is 4.29 nM (active).

Question: What about the GI50 (SK-MEL-28) of the same compound?
Answer: Its GI50 is 2.9 nM (active).

Question: And the GI50 (UACC-257)?
Answer: The GI50 was 2.96 nM (active).

Question: And the GI50 (786-0)?
Answer: Its GI50 is 4.12 nM (active).

Question: And the GI50 (SK-MEL-2)?
Answer: The GI50 was 1.83 nM (active).

Question: What about the GI50 (OVCAR-8) of the same compound?
Answer: The GI50 was 2.83 nM (active).

Question: And the GI50 (MDA-N)?
Answer: Its GI50 is 1.38 nM (active).

Question: What about the GI50 (Malme-3M) of the same compound?
Answer: The GI50 was 1.3 nM (active).

Question: What about the GI50 (SF-295) of the same compound?
Answer: Its GI50 is 2.96 nM (active).

Question: And the GI50 (SW-620)?
Answer: The GI50 was 2 nM (active).

Question: And the GI50 (SNB-75)?
Answer: The GI50 was 2.66 nM (active).

Question: What about the GI50 (ACHN) of the same compound?
Answer: The GI50 was 3.48 nM (active).

Question: What about the GI50 (RPMI-8226) of the same compound?
Answer: Its GI50 is 0.634 nM (active).

Question: What about the GI50 (UO-31) of the same compound?
Answer: The GI50 was 6.4 nM (active).

Question: And the GI50 (HCT-15)?
Answer: Its GI50 is 8.26 nM.

Question: What about the GI50 (COLO 205) of the same compound?
Answer: Its GI50 is 1.19 nM (active).

Question: What about the GI50 (CCRF-CEM) of the same compound?
Answer: The GI50 was 0.798 nM (active).

Question: What about the GI50 (LOX IMVI) of the same compound?
Answer: The GI50 was 1.08 nM (active).

Question: And the GI50 (RXF 393)?
Answer: Its GI50 is 3.41 nM (active).

Question: And the GI50 (MDA-MB-435)?
Answer: The GI50 was 2.55 nM (active).

Question: What about the GI50 (M14) of the same compound?
Answer: The GI50 was 2.21 nM (active).

Question: What about the GI50 (TK-10) of the same compound?
Answer: Its GI50 is 7.71 nM (active).

Question: What about the GI50 (NCI/ADR-RES) of the same compound?
Answer: Its GI50 is > 64.3 nM (active).

Question: And the GI50 (HT-29)?
Answer: Its GI50 is 2.06 nM (active).

Question: And the GI50 (OVCAR-4)?
Answer: The GI50 was 2 nM (active).

Question: And the GI50 (OVCAR-3)?
Answer: The GI50 was 2.14 nM (active).

Question: What about the GI50 (DU-145) of the same compound?
Answer: Its GI50 is 2.6 nM (active).

Question: What about the GI50 (SNB-19) of the same compound?
Answer: The GI50 was 3.85 nM (active).

Question: And the GI50 (IGROV-1)?
Answer: The GI50 was 1.4 nM (active).

Question: And the GI50 (SK-OV-3)?
Answer: The GI50 was 12.5 nM (active).

Question: And the GI50 (MCF7)?
Answer: The GI50 was 1.35 nM (active).

Question: What about the GI50 (Hs-578T) of the same compound?
Answer: Its GI50 is 1.34 nM (active).

Question: What about the GI50 (PC-3) of the same compound?
Answer: Its GI50 is 4.33 nM (active).

Question: And the GI50 (OVCAR-5)?
Answer: The GI50 was 3.37 nM (active).

Question: And the GI50 (K562)?
Answer: The GI50 was 0.977 nM (active).

Question: And the GI50 (HCC 2998)?
Answer: The GI50 was 3.27 nM (active).

Question: And the GI50 (SR)?
Answer: The GI50 was 0.182 nM (active).

Question: What about the GI50 (KM12) of the same compound?
Answer: The GI50 was 1.49 nM (active).

Question: And the GI50 (A498)?
Answer: Its GI50 is 2.32 nM (active).

Question: And the GI50 (NCI-H522)?
Answer: Its GI50 is 0.399 nM (active).

Question: And the GI50 (BT-549)?
Answer: The GI50 was 1.32 nM (active).

Question: What about the GI50 (HOP-92) of the same compound?
Answer: The GI50 was 1.36 nM (active).

Question: What about the GI50 (UACC-62) of the same compound?
Answer: The GI50 was 1.23 nM (active).

Question: What about the GI50 (SN12C) of the same compound?
Answer: Its GI50 is 3.29 nM (active).

Question: What about the GI50 (NCI-H460) of the same compound?
Answer: The GI50 was 4 nM (active).

Question: And the GI50 (SK-MEL-5)?
Answer: The GI50 was 2.54 nM (active).

Reference: ChEMBL document CHEMBL1201862, “PubChem BioAssay data set” (2004)
